# Columns and labels:
# [1] = Effect of single and multiple ascending doses of Compound B on blood pressure; assay type: in vivo
# Description: and is described in U.S. Patent Application Publication No. 2010/0311799. Single ascending dose of Compound B caused a drop in blood pressure starting ˜1.25 hr post dose (FIG. 5).
# [2] = Phase 1 multiple ascending dose study (Part B), blood pressure in healthy participants; assay type: in vivo, human; details: MAD, 14-day treatment period
# Experimental: (§1) The study was performed in 3 parts in 112 healthy male and female participants, including 24 Japanese participants. Female participants were to be not of childbearing potential. The present study was designed to evaluate the safety and tolerability, PK, and exploratory PD of an oral suspension of Compound A. Parts A and B (Cohort B1 only) enrolled healthy participants and was conducted at a site in The Netherlands and Part B (Cohort B2 to B5) enrolled healthy non-Japanese participants and was conducted at a site in the United Kingdom (UK). Part C enrolled healthy Japanese participants and was conducted at the same site in the UK.
# Part B was a MAD study in a planned number of 6 sequential dose escalation cohorts (10 mg QD, 30 mg QD, 30 mg BID, 60 mg BID, 125 mg BID, and ≤250 mg BID) of 8 healthy participants (6 active+2 placebo) each, under fasted conditions. However, Cohort B6 (≤250 mg BID) was cancelled because sufficient safety and PK data had been obtained at doses up to 125 mg BID. […]
# Physical examinations, vital sign measurements (including orthostasis testing in Cohort A6, Cohort B3 to B5, and C1 to C3 at selected time points), 12-lead electrocardiogram (ECG), and clinical laboratory evaluations were performed at selected times throughout the study. […] Participants were closely monitored for adverse events (AEs). […]
# [3] = Phase 1 multiple ascending dose study (Part C), blood pressure in healthy Japanese participants; assay type: in vivo, human
# Experimental: as §1
# Part C was a MAD study in 3 sequential dose escalation cohorts (30 mg BID, 60 mg BID, and 90 mg BID) of 8 healthy Japanese participants (6 active+2 placebo) each. Eligible participants in Cohorts C1 to C3 received study drug (Compound A or placebo) administered orally for 14 days.
# Physical examinations, vital sign measurements (including orthostasis testing in Cohort A6, Cohort B3 to B5, and C1 to C3 at selected time points), 12-lead electrocardiogram (ECG), and clinical laboratory evaluations were performed at selected times throughout the study. In addition, Holter monitoring was performed for the first 24 hours post dose on Day 1 in Part A (not in FE/pH cohort), and also for the first 24 hours post dose on Day 1 and Day 14 in Parts B and C. Participants were closely monitored for adverse events (AEs). Blood samples were collected for up to 14 days (follow-up visit) after (last) study drug administration for PK analysis. In addition, blood and urine were collected for exploratory biomarker assessments and for biobanking of samples for potential analyses. Urine was collected for potential PK analysis for up to 96 hours after a single dose of Compound A or placebo was administered in the SAD part, and for up to 24 hours after the first (morning) dose of study drug on Day 1 and for up to 24 hours after the last (morning) dose of study drug on Day 14 in the MAD parts.
# participants with IPF = test: Phase 2 study, IPF cohort: efficacy (ppFVC, FVC); assay type: in vivo, human; details: for Rate of change in ppFVC over 26 weeks: 60-mg arm
# Experimental: A total of 278 participants with IPF were randomized and 276 participants were treated as of theinal analyses data cut-off (4 Aug. 2022). Male and female participants ≥40 years of age with IPF and percent predicted forced vital capacity (ppFVC) ≥40% and percent predicted DLCO (ppDLCO) ≥25%; diagnosed within 7 years of screening; having a centrally-read chest HRCT obtained at screening that was consistent with UIP or probable UIP, or having a lung biopsy consistent with UIP were eligible to enter the study. The mean baseline ppFVC for all subjects was 76.5%. In the primary IPF cohort, participants were randomized (1:1:1) to receive 30 mg or 60 mg Compound A or placebo (PBO) twice daily for 26 weeks. Participants were stratified by standard of care (SoC) IPF therapy (pirfenidone versus nintedanib versus none) and region (Japan versus Rest of World) at randomization.
# The primary objective of the study was to determine the rate of change in ppFVC from baseline to Week 26. The primary objective was evaluated with a two estimand framework to handle the intercurrent event of dose reduction to 10 mg BID or matching PBO when pre-specified low BP criteria is met. The primary estimand is adopted to estimate treatment effect when dose reduction is implemented. The supplementary estimand is adopted to estimate the effect of treatment without dose reduction.
# Analysis Strategy: The primary estimand was to evaluate the efficacy of Compound A at 30 mg or 60 mg twice daily, compared to PBO in IPF participants who met the enrollment criteria, with or without use of SoC. The rate of decline in ppFVC (%) from baseline to Week 26 was compared using the difference between each dose and PBO as a population level summary regardless of dose reduction or treatment discontinuation for any reason (treatment policy strategy).
# Analysis Strategy: The supplementary estimand for the primary objective is to evaluate the efficacy of Compound A at 30 mg or 60 mg twice daily without dose reduction, compared to the PBO in IPF subjects who met the enrollment criteria, with or without use of SoC. The rate of decline in ppFVC (%) from baseline to Week 26 has been compared using the difference between each dose and PBO as a population level summary regardless of treatment discontinuation for any reason (treatment policy strategy). In the event of dose reduction, data collected after dose reduction will not be considered relevant to the treatment effect of interest and therefore, will be treated as missing (while-on-treatment strategy).
# participants with PPF = test: Phase 2 study, PPF cohort: efficacy (ppFVC, FVC); assay type: in vivo, human; details: for Relative reduction: 60 mg v placebo
# Experimental: (§2) A total of 123 participants with PPF were randomized. Participants (age ≥21 years) were randomized (1:1:1) to receive 30 mg or 60 mg Compound A or PBO twice daily for 26 weeks. […] Immunosuppressive medications (mycophenolate mofetil, mycophenolic acid, azathioprine and/or tacrolimus) were permitted only if dosing is stable for ≥6 months prior to screening. If receiving antifibrotic agents pirfenidone or nintedanib, patients had to receive a stable dosage for ≥3 months prior to screening and during the screening period; if not receiving pirfenidone or nintedanib, patients had to be naive to both drugs or not have received either 4 weeks prior to Day 1. A total of 47 (38.2%) subjects were receiving antifibrotic treatment (with or without immunosuppression therapy). Of those subjects, 34 were being treated with nintedanib and 13 with pirfenidone. Participants were stratified by usual interstitial pneumonia (UIP) pattern (presence versus absence) and background therapy (antifibrotics +/−ILD-targeted immunosuppression versus ILD-targeted immunosuppression alone versus none).UIP pattern was present in 52% of subjects and unclassifiable ILD was he most common disease categorization.
# The study was not powered to detect statistical significance (no formal testing). No target effect size was defined in the study design. There were two estimand approaches for analysis:
# Treatment Policy: Effect of treatment with dose reduction as part of treatment regimen.
# While-On Treatment: Effect of treatment without dose reduction.
# The main efficacy endpoint, rate of FVC decline (in […]) from baseline to wk-26 in the PPF cohort, was estimated using a linear mixed-effects model utilizing all FVC timepoints. It was analyzed under a primary estimand (utilizing all data, treatment policy strategy), and under supplementary estimand (utilizing all data up to the point of dose reduction, while-on-treatment strategy). Analysis was performed in the overall population as well as in sub-groups by 1) background anti-fibrotic treatment or not 2) UIP radiographic pattern (presence or not). The mean baseline ppFVC was 66.700 for the PPF cohort.
# [4] = Phase 2 study, PPF cohort: safety and blood pressure reduction criteria; assay type: in vivo, human
# Experimental: as §2
# Patient is experiencing any of the following, confirmed by retest within 15 minutes: • Seated systolic blood pressure <85 mmHg • Seated diastolic blood pressure <55 mmHg • Orthostatic hypotension
# Patient is experiencing symptoms that, in the investigator's opinion, could be associated with a reduction in blood pressure and is also experiencing at least one of the following, confirmed by retest within 15 minutes: • Seated systolic blood pressure <100 mmHg or seated diastolic blood pressure <60 mmHg • Decrease of seated systolic blood pressure of ≥20 mmHg from the previous visit or decrease of seated diastolic blood pressure of ≥10 mmHg from the previous visit • Orthostatic hypotension • Orthostatic tachycardia
# patients with IPF = details: cited from earlier work
# patients with PPF = details: 52-week study period; cited from earlier work
compound,measurement,setting,value
"Cc1noc(-c2ccc(-c3ccc(C4(C(=O)O)CC4)cc3)cc2)c1NC(=O)O[C@H](C)c1ccccc1 [Compound B, sodium (R)-1-(4′-(3-methyl-4-(((1-phenylethoxy)carbonyl)amino)isoxazol-5-yl)-[1,1′-biphenyl]-4-yl)cyclopropane-1-carboxylate]",Normalization of blood pressure,[1]; multiple days of dosing (FIG. 6),~3 days
same,Start of drop in blood pressure post dose,[1]; single ascending dose (FIG. 5),~1.25 h
"CCCN(C)C(=O)OCc1c(-c2ccc(O[C@H]3CCC[C@H](C(=O)O)C3)c(C)n2)nnn1C [Compound A, (1S,3S)-3-((2-methyl-6-(1-methyl-5-(((methyl(propyl)carbamoyl)-oxy)methyl)-1H-1,2,3-triazol-4-yl)pyridin-3-yl)oxy)cyclohexane-1-carboxylic acid]",Magnitude of BP reductions with repeated dosing,[2],no clear changes in the magnitude of BP reductions with repeated dosing
same,"DBP, Baseline",[3]; Japanese MAD 30 mg BID (C1),8.8 ± 5.12 mmHg
same,"DBP, Reduction",[3]; Japanese MAD 30 mg BID (C1),72.2 ± 3.87 mmHg
same,"DBP, Baseline",[3]; Japanese MAD 60 mg BID (C2),8.2 ± 10.40 mmHg
same,"DBP, Reduction",[3]; Japanese MAD 60 mg BID (C2),73.8 ± 6.18 mmHg
same,"DBP, Baseline",[3]; Japanese MAD 90 mg BID,8.0 ± 8.22 mmHg
same,"DBP, Reduction",[3]; Japanese MAD 90 mg BID,70.7 ± 7.58 mmHg
same,Dose dependence of BP reduction,[3]; Japanese MAD cohorts,no clear Compound A dose-dependent BP reduction trend
same,Treatment response vs PBO (rate of decline of ppFVC and FVC),"participants with IPF; 60 mg BID, Week 26, overall population",favorable treatment responses
same,Relative treatment benefit vs PBO (ppFVC),"participants with IPF; 60 mg BID, primary estimand, not on background SoC",113%
same,Relative treatment benefit vs PBO (ppFVC),"participants with IPF; 60 mg BID, primary estimand, on background SoC",39%
same,Relative treatment benefit vs PBO (ppFVC),"participants with IPF; 60 mg BID, supplementary estimand, not on background SoC",123%
same,Relative treatment benefit vs PBO (ppFVC),"participants with IPF; 60 mg BID, supplementary estimand, on background SoC",44%
same,Rate of change in ppFVC over 26 weeks,participants with IPF; treatment policy strategy,−1.2%
same,Rate of change in ppFVC over 26 weeks,participants with IPF; while-on-treatment strategy,−1.1%
same,"Treatment difference in rate of change in ppFVC, 60-mg arm vs placebo",participants with IPF; treatment policy strategy,1.4%
same,"Treatment difference in rate of change in ppFVC, 60-mg arm vs placebo",participants with IPF; while-on-treatment strategy,1.8%
same,Relative reduction,participants with PPF; Anti-fibrotic subgroup,75%
same,Relative reduction,participants with PPF; No antifibrotic subgroup,63%
same,Relative reduction,participants with PPF; Non UIP subgroup,84%
same,Relative reduction,participants with PPF; UIP subgroup,54%
same,Relative reduction,participants with PPF; overall,69%
same,Rate of change in ppFVC over 26 weeks,"participants with PPF; 30-mg arm, treatment policy strategy",−2.7%
same,Rate of change in ppFVC over 26 weeks,"participants with PPF; 30-mg arm, while-on-treatment strategy",−2.5%
same,Rate of change in ppFVC over 26 weeks,"participants with PPF; 60-mg arm, treatment policy strategy",−1.1%
same,Rate of change in ppFVC over 26 weeks,"participants with PPF; 60-mg arm, while-on-treatment strategy",−1.3%
same,Treatment difference 60 mg v placebo in rate of decline in ppFVC,"participants with PPF; Non UIP subgroup, baseline to Week 26",3.80
same,"Treatment difference in rate of change in ppFVC, 60-mg vs placebo",participants with PPF; treatment policy strategy,3.2%
same,"Treatment difference in rate of change in ppFVC, 60-mg vs placebo",participants with PPF; while-on-treatment strategy,2.9%
same,"Low BP thresholds (""events"")",[4]; 30 mg,30%
same,Deaths due to TEAEs,[4]; 30 mg (n = 40),0 no.
same,Dizziness,[4]; 30 mg (n = 40),0 no.
same,Hypertension,[4]; 30 mg (n = 40),0 no.
same,Deaths due to TEAEs,[4]; 60 mg (n = 42),0 no.
same,Discontinuations due to TEAEs,[4]; 60 mg (n = 42),0 no.
same,Dyspnea,[4]; 60 mg (n = 42),0 no.
same,Rash,[4]; 60 mg (n = 42),0 no.
same,Vomiting,[4]; 60 mg (n = 42),0 no.
COC(=O)c1ccc2c(c1)NC(=O)/C2=C(\Nc1ccc(N(C)C(=O)CN2CCN(C)CC2)cc1)c1ccccc1 [nintedanib],Decline in lung function,patients with IPF,significantly reduce the decline in lung function
same,Progression of lung fibrosis vs placebo (annual rate of decline in FVC),patients with PPF,slower progression of lung fibrosis than those who received placebo
Cc1ccc(=O)n(-c2ccccc2)c1 [pirfenidone],Decline in lung function,patients with IPF,significantly reduce the decline in lung function
